Measurements published in publication PMC5807063 (Science (New York, N.Y.), 2017).

Legend:
[1] = target: T1, purified HNE (human neutrophil elastase) (Homo sapiens, UniProt P08246); experiment: Inhibition of purified human neutrophil elastase
T1 sequence (P08246 30-267): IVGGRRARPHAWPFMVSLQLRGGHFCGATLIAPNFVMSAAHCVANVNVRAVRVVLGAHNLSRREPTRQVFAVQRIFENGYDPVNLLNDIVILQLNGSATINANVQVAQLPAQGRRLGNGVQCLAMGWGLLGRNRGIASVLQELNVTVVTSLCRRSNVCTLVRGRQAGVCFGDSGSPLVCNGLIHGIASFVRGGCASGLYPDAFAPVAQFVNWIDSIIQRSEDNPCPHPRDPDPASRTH

HNE in CF patient sputum = target: T2, HNE in CF patient sputum (Homo sapiens, UniProt P08246); experiment: HNE inhibition in CF patient sputum; details: sputum samples of CF patients
T2 sequence (P08246 30-267): T1 sequence (P08246 30-267)

Substance: BAY 85-8501 [compound 54]
- HNE inhibitory activity (in words) [1]: low IC50 values
- inhibitory activity in CF patient sputum (in words) (HNE in CF patient sputum): potencies diminished
